Measured values published in patent US20140296484A1, “Cyclin Based Inhibitors of CDK2 and CDK4” (University of South Carolina, priority 2013, published 2014).
Like-named read-outs stand apart in the source and are kept apart here. Where a SMILES comes first, the peptide text is derived from it. [ ]: non-standard residue; d: D form. The star is where a group is joined. X5 = Cc1nc(C(=O)*)nn1-c1cc(Cl)cc(Cl)c1; Ala(cPent) = N[C@@H](CC1CCCC1)C(=O)O; X1 = Cc1nc(C(=O)*)nn1-c1ccc(Cl)cc1; 2Thi = N[C@@H](Cc1cccs1)C(=O)O; Cba = N[C@@H](CC1CCC1)C(=O)O; Picolinoyl = O=C(c1ccccn1)*

How the values were obtained:
[1] = Fluorescence polarization (FP) competitive binding assay; conditions: Table 20; read-out: CDK2/Cyclin A IC050
Description: (§1) In order to assess the contribution of the PLA H-bond acceptor, analogous compounds were made in each series and activities for the 4-chloro and 3,5-dichloro analog were evaluated in each context.
(§2) Several additional analogs were synthesized in addition to the 3,5 dichloro and 4-chlorophenyl analogs. In addition to determining their inhibition of CDK2/cyclin A, the availability of the CDK4/cyclin D1 binding assay was exploited to develop SAR for both kinases.
(§3) Once the compounds were characterized, their binding affinities were tested by FP assay.

[2] = target: CDK2/cyclin A (Homo sapiens, UniProt P20248); assay: as above
Description: as §3

[3] = target: T1, CDK4/Cyclin D1 (Homo sapiens, UniProt P24385); assay: as above
T1 sequence (P24385 whole entry): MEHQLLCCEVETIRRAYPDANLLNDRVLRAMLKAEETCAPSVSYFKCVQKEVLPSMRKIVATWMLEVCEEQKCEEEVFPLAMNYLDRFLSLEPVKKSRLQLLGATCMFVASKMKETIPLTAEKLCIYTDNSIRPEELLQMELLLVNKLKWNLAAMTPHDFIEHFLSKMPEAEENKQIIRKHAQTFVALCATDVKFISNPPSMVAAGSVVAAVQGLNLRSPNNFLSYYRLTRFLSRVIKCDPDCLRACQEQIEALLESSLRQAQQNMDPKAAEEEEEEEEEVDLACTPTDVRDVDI
T1 sequence (P11802 whole entry partner): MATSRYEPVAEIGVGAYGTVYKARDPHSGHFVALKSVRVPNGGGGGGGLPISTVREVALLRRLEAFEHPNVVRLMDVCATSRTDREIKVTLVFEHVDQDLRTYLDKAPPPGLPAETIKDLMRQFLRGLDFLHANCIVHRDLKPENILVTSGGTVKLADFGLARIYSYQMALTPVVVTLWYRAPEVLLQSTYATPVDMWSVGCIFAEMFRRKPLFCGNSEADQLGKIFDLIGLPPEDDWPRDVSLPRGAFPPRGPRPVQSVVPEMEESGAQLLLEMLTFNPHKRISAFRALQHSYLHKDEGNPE
Description: as §1, §2, §3

[4] = target: T1, CDK4/Cyclin D1; assay: In vitro kinase assay, 32P filter capture with GST-Rb substrate; format: biochemical; conditions: kinase assay
[5] = target: CDK2/Cyclin A2 (Homo sapiens, UniProt P20248); assay: as above; format: biochemical
[6] = competitive binding (FP) assay, read-out: CDK2/Cyclin A IC50
[7] = competitive binding (FP) assay, read-out: CDK4/Cyclin D1 IC50
[8] = Table 15, read-out: CDK2/Cyclin D1 IC50

Row | Molecule | IC50 [2, 6] | IC50 [4] | further results
1 | CC[C@H](C)[C@H](NC(=O)[C@H](CC(C)C)NC(=O)[C@H](CCCNC(=N)N)NC(=O)c1ccccn1)C(=O)N[C@@H](Cc1ccccc1)C(=O)O [525 (RLIF form)] (Picolinoyl-RLIF-OH) |  |  | IC50 ([3]; Table 11, value tagged (LIF) (0321), read-out: IC50 CDK4/D1 (LIF) (0321)): 49 µM; IC50 ([3]; Table 11, value tagged (LIF), read-out: IC50 CDK4/D1 (LIF)): 64 µM; IC50 ([2]; Table 11, value tagged (LIF), read-out: IC50 CDK2/A2 (LIF)): 94.3 ± 14.9 µM
2 | CC[C@H](C)[C@H](NC(=O)[C@H](CC(C)C)NC(=O)[C@H](CCCNC(=N)N)NC(=O)[C@H](CCCNC(=N)N)NC(=O)[C@H](CCCCN)NC(=O)[C@H](C)NC(=O)[C@@H](N)Cc1c[nH]cn1)C(=O)N[C@@H](CC1CCC1)C(N)=O [HAKRRLIX4] (H-HAKRRLI[Cba]-NH2) |  | 100 µM | IC50 [5]: 25 µM
3 | CC(C)C[C@H](NC(=O)[C@H](CCCNC(=N)N)NC(=O)[C@H](CCCNC(=N)N)NC(=O)[C@H](CCCCN)NC(=O)[C@H](C)NC(=O)[C@@H]1CCCN1)C(=O)N[C@@H](Cc1ccccc1)C(=O)NCC(N)=O |  | 6.7 µM | 
4 | CC[C@H](C)[C@H](NC(=O)[C@H](CC(C)C)NC(=O)[C@H](CCCNC(=N)N)NC(=O)[C@@H](N)CCCNC(N)=O)C(=O)N[C@@H](Cc1ccccc1)C(N)=O [CitRLIF, Cit-RLIF] |  | 179 µM | 
5 | CC[C@H](C)[C@H](NC(=O)[C@H](CC(C)C)NC(=O)[C@H](CCCNC(=N)N)NC(=O)c1nc(C)n(-c2cc(Cl)cc(Cl)c2)n1)C(=O)NCc1cccc(Oc2ccccc2)c1 [SCCP10] |  | 8 µM | 
6 | CC[C@H](C)[C@H](NC(=O)[C@H](CC(C)C)NC(=O)[C@H](CCCNC(=N)N)NC(=O)[C@H](CCCNC(=N)N)NC(=O)[C@H](CCCCN)NC(=O)[C@H](C)NC(=O)[C@@H](N)Cc1c[nH]cn1)C(=O)N[C@@H](CC1CCCC1)C(N)=O [HAKRRLIX5] (H-HAKRRLI[Ala(cPent)]-NH2) |  | 90 µM | IC50 [5]: 20 µM
7 | CC[C@H](C)[C@H](NC(=O)[C@H](CC(C)C)NC(=O)[C@H](CCCNC(=N)N)NC(=O)[C@H](CCCNC(=N)N)NC(=O)[C@H](CCCCN)NC(=O)[C@H](C)NC(=O)[C@@H](N)Cc1c[nH]cn1)C(=O)N[C@@H](Cc1cccs1)C(N)=O [HAKRRLIX2] (H-HAKRRLI[2Thi]-NH2) |  |  | IC50 [5]: 3.6 µM
8 | H-HAKTRLIF-NH2 |  | 25 µM | IC50 [5]: 50 µM
9 | H-SAKRALFGM-NH2 |  | 68 µM | 
10 | H-SAKRNLFGM-NH2 |  | 146 µM | 
11 | N=C(N)NCCCC(NC(=O)c1ccccc1)C(=O)Nc1ccc2ccccc2c1 (centres unmarked) [N-(5-guanidino-1-(naphthalen-2-ylamino)-1-oxopentan-2-yl)benzamide] |  |  | binding in the FP assay ([2]; cyclin not specified (Cyclin A and D1 expected)): weakly binding
12 | CCN(CCc1ccccc1)C(=O)CC(CC(C)C)NC(=O)[C@H](CCCNC(=N)N)NC(=O)c1nc(C)n(-c2cc(Cl)cc(Cl)c2)n1 (some centres unmarked) [compound 6003] |  |  | IC50 [3, 8]: > 180 µM

Now from value to molecule, other results behind:

Row | IC50 [2, 6] | IC50 [4] | Molecule | further results
13 | > 180 µM |  | COc1ccccc1CC(CC(C)C)NC(=O)C(CCCCNC(=N)N)NC(=O)c1nc(C)n(-c2cc(Cl)cc(Cl)c2)n1 (single isomer, unassigned) [compound 5981] | IC50 [1]: > 180 µM
14 | 25 µM |  | CC[C@H](C)[C@H](NC(=O)[C@H](CC(C)C)NC(=O)[C@H](CCCNC(=N)N)NC(=O)c1nc(C)n(-c2ccc(Cl)cc2)n1)C(=O)N[C@@H](Cc1ccccc1)C(=O)O [SCCP 5774] (X1-RLIF-OH) | IC50 [3, 7]: 11 µM
15 | > 180 µM |  | COc1ccccc1C(CC(C)C)NC(=O)C(CCCCNC(=N)N)NC(=O)c1nc(C)n(-c2cc(Cl)cc(Cl)c2)n1 (centres unmarked) [compound 5985] | IC50 [1]: > 180 µM
16 | > 180 µM |  | Cc1nc(C(=O)N[C@@H](CCCNC(=N)N)C(=O)NC(CC(=O)NCCc2ccccc2)CC(C)C)nn1-c1cc(Cl)cc(Cl)c1 (some centres unmarked) [compound 6002] | IC50 [3, 8]: > 180 µM
17 | 12 µM |  | CC[C@H](C)[C@H](NC(=O)[C@H](CC(C)C)NC(=O)[C@H](CCCNC(=N)N)NC(=O)c1nc(C)n(-c2cc(Cl)cc(Cl)c2)n1)C(=O)N[C@@H](Cc1ccccc1)C(=O)O [SCCP 5773, 1-(3,5-dichlorophenyl)-5-methyl-1H-1,2,4-triazole-3-carbonyl-RLIF] (X5-RLIF-OH) | IC50 [3, 7]: 27 µM
18 |  | 179 µM | CC[C@H](C)[C@H](NC(=O)[C@H](CC(C)C)NC(=O)[C@H](CCCNC(N)=O)NC(=O)[C@@H](N)CCCNC(=N)N)C(=O)N[C@@H](Cc1ccccc1)C(N)=O [RCitLIF] | 
19 | 85.6 µM |  | CCN(CCc1ccccc1)C(=O)CC(CC(C)C)NC(=O)[C@H](CCCNC(=N)N)NC(=O)c1nc(C)n(-c2cc(Cl)cc(Cl)c2)n1 (some centres unmarked) [SCCP 6003] | 
